Patent EP4389150A1, “CONJUGATE COMPOUNDS AND THEIR USE IN CANCER TREATMENT AND DIAGNOSIS” (Technische Universität München, priority 2022, dated 2024)
Entries after “also recorded” stand apart in the source; their conditions may differ. Where two headings read alike, the source gives them in different places.

Legend:
LNCaP cells = assay: Binding and internalization (cell uptake) of 68Ga-labelled PSMA ligands in LNCaP cells; format: cell-based
Protocol: To determine ligand internalization, LNCaP cells were seeded in a 96 V-bottom well plate at a density of 100,000 cells/well in 5% BSA (w/v)/RPMI medium (100 µL/well) and incubated for 30 min at 37 °C. Afterwards, solutions (25 µL/well) of either 5% BSA (w/v)/RPMI medium or of 2-PMPA (final concentration: 10 µM) in 5% BSA (w/v)/RPMI medium for blockade were added. Then, a solution of the ^68Ga-labeled PSMA-ligand (25 µL/well; 0.4 nM final concentration; AM = 26-30 MBq/nmol) was added to all wells, and the cells were incubated for 5, 15, 30, and 60 min, respectively, at 37 °C. Hereby, each time point was performed in triplicates and each experiment was repeated three times. The internalization process was terminated by placing the plate for 5 min on ice. The free radioligand was obtained by centrifugation of the plate at 600 g for 3 min and removal of the supernatant. Each well was then washed with ice-cold PBS and the fractions of the first two steps were combined. For removal of cell-bound PSMA-ligand, the cells were treated in a next step with ice-cold 2-PMPA-solution (10 µM in PBS; 150 µL/well; 15 min on ice), centrifuged (600 g, 3 min), and washed with ice-cold PBS (150 µL/well). The fractions were again combined. For the analysis of internalized radioligand, the fractions of a 1.0 N NaOH (150 µL/well; 10 min on ice) treatment as well as a concomitant washing step with 1.0 N NaOH (150 µL/well) were pooled. Free, surface bound, and internalized activity, respectively, was measured in a γ-counter.

PSMA = target: T1, PSMA (Homo sapiens, UniProt Q04609); assay: IC50 determination by competition with [68Ga]-PSMA-617 on LNCaP cells; format: binding; conditions: [68Ga]-PSMA-617 0.4 nM, 60 min on ice, natGa-labelled ligands
T1 construct: endogenous in cells; host or cells: LNCaP cells
T1 sequence (Q04609 whole entry): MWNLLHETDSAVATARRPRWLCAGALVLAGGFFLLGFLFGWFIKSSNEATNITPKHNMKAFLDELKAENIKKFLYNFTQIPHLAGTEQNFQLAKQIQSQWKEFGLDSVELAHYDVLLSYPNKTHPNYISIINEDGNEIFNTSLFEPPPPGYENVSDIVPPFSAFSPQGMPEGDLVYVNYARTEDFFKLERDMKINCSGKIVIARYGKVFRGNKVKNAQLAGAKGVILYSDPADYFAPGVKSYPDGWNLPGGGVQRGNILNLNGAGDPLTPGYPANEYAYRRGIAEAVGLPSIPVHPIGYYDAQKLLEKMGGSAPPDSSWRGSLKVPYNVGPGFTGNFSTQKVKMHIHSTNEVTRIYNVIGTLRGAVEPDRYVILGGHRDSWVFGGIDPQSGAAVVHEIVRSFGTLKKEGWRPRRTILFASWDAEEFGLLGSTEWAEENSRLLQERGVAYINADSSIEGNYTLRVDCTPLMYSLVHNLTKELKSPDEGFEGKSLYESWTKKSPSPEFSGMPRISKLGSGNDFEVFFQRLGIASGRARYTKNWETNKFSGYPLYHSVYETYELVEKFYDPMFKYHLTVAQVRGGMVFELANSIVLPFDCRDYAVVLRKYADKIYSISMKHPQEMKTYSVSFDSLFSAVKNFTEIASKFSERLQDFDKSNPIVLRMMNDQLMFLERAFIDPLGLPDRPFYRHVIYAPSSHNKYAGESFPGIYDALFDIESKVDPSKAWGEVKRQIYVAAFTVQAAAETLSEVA
Protocol: In the meantime, dilution series of the compounds were prepared in 1% BSA (w/v)/HBSS in a separate 96 U-bottom deep well plate ranging from 12 µM to 153.6 pM in 1:5 dilution steps. Next, solutions (25 µL/well) of either 1% BSA (w/v)/HBSS (control) or of the respective dilution series were transferred to the LNCaP cells containing plate. Hereby, each concentration was pipetted in triplicates and each experiment was repeated three times. Subsequently, [^68Ga]-PSMA-617 (25 µL/well; 0.4 nM final concentration; AM = 26-30 MBq/nmol) in 1% BSA (w/v)/HBSS was added to all wells and the plate was incubated for 60 min on ice. Afterwards, the experiment was terminated by centrifugation at 600 g for 3 min and removal of the supernatant. The cells were then washed with ice-cold HBSS (150 µL/well), centrifuged (600 g, 3 min), and the supernatant as well as the washing fraction were combined, representing the amount of free, unbound radioligand. Bound radioligand was obtained by lysis of the cells with 1.0 N NaOH (150 µL/well; 10 min on ice). Afterwards, the plate was washed a second time with 1.0 N NaOH (150 µL/well). Hereby, the washing step was combined with the NaOH fraction. The quantification of bound and free radioligand was finally accomplished via measuring the samples in a γ-counter.

[1] = Lipophilicity, n-octanol/PBS distribution coefficient; format: physicochemical
Protocol: Lipophilicity of the conjugates was determine after radiolabeling with ^68Ga. The PSMA ligand (0.80 MBq) was dissolved in PBS (500 µL/pH 7.4) in a reaction vial (1.5 mL; n = 10). Afterwards, n-octanol was added (500 µL) and the mixture was rigorously vortexed for 3 min. Subsequent centrifugation (Biofuge 15, Heraus Sepatech, Osterode, Germany) at 13,000 rpm for 5 min led to a phase separation. After measuring 100 µL of each phase in a γ-counter, the distribution coefficient (logD(O/PBS)) was calculated with Microsoft Excel.

Serum stability = format: in vitro ADME; conditions: 37 °C; for stable (intact) after incubation in human serum: 2 hours; for intact after incubation in human serum: 24 hours
Protocol: For serum stability analysis, 13.5 µL human serum were mixed with 1.5 µL of an aqueous solution of the test compound (200 µM final concentration) and incubated at 37 °C for 0.5, 1, 2, and 24 h, respectively. Afterwards, 25.0 µL MeCN were added, the suspension was centrifuged (14,000 rpm, 30 min, 4 °C), the supernatant was recovered, and finally analyzed by HPLC-ESI-MS using a linear elution gradient from 10 to 95% (v/v) MeCN/0.1% (v/v) TFA in water/0.1% (v/v) TFA for 15 min.

[2] = system: PC3-PIP/PC3-flu bilateral tumor model; format: in vivo, Athymic nude mice; conditions: for biodistribution profile: 1 h post-injection; for tumor uptake (PET/CT, biodistribution): PSMA+ PC3-PIP versus PSMA- PC3-Flu tumors
Description: In vivo experiment. Athymic nude mice were subcutaneously injected with 4×10^6 PC3-PIP (PSMA+) and 3×10^6 PC3-Flu (PSMA-) cells to produce a bilateral tumor model.
At the completion of the imaging study, mice were euthanized and organs were resected, weight, and analyzed by gamma counting to determine tracer biodistribution. Data are ported as percentage of injected activity per gram of tissue (%IA/g).
At the completion of the imaging study, mice were euthanized and organs were resected, weighted, and analyzed by gamma counting to determine tracer biodistribution. Biodistribution data are reported as percentage of injected dose per gram of tissue (%ID/g).

late stage mCRPC = late stage mCRPC patients, versus 11.3 months with standard therapy; Sartor et al., 2021; cited from earlier work
[3] = system: PC3-PIP cells / PC3-flu cells; assay: Fluorescence microscopy of Ruc delivery in PSMA+ and PSMA- cells; format: cell-based; conditions: PSMA+ PC3-PIP versus PSMA- PC3-flu cells (Figure 4A)
Protocol: For microscopic analysis, black clear-bottom 96 well cell culture plates with cover-glass bottom (µ plate 96 well black; ibidi) were coated with poly-L-lysine (0.01% (w/v) in sterile water). Cells were seeded at a density of 20-40,000 cells/well and cultured for 24 h at 37 °C. Subsequently, the PSMA ligands (1 µM; 100 µL/well) were directly added with or without blocking and ligand treatment was accomplished for 5, 60 or 180 min at 37 °C, while in case of GSH preincubation, GSH-OEt (10 mM; 100 µL/well) was applied for 1 h at 37 °C prior to ligand treatment. For the latter case, the PSMA ligands (1 µM, 100 µL/well) were added after removal of the GSH containing medium and the incubation time was 60 min at 37 °C. Afterwards, cells were washed with PBS (2×) and fixed with 4% (w/v) PFA in PBS for 8 min at RT (pH 7.4, 100 µL/well). CellMask™ Green Plasma Membrane Stain was used to stain the cell membrane, whereas for cell nuclei DRAQ5™ was used. Before imaging, cells were washed with PBS (3×) and mounted in PBS (150 µL/well). Finally, cells were imaged using an EVOS M7000 microscope (Thermo Fisher Scientific).

PSMA+ (LNCaP) = assay: Cell viability (Alamar Blue), monotherapy, PSMA+ cells; format: cell-based; conditions: 72h
Protocol: (§1) Black, clear-bottom 96 well culture plates were coated with poly-L-lysine. Afterwards, the plates were washed with PBS (1 × 100 µL), cells were seeded (2000 cells/well for PC3, 10000 cells/well for LNCaP), and cultured for 24 h (PC3) or 48 h (LNCaP) at 37 °C. The culture medium was removed, and new culture medium containing 10 mM GSH-OEt was added and incubated for 1 h at 37 °C. After removal of the GSH-OEt medium, new culture medium containing the PSMA-Ruc conjugates was added. After 72 h of incubation at 37 °C, cells were treated with Alamar Blue for visualization of cell viability. […] Each data points represents one biological replicate.

PSMA- (PC3) = assay: Cell viability (Alamar Blue), monotherapy, PSMA- cells; format: cell-based; conditions: PC3, 20 µM, 72h, pretreated with 10 mM GSH; read-out: cell viability compared to untreated cells
Protocol: as §1

mCRPC = conditions: TRITON2 trial, Abida et al., 2020; cited from earlier work
[4] = 68Ga-labelled, 2 nmol via tail vein, 60 min p.i.

In the case of `O=C(O)CC[C@H](NC(=O)N[C@@H](CCCCNC(=O)[C@H](Cc1ccc2ccccc2c1)NC(=O)[C@H]1CC[C@H](CNC(=O)CN2CCN(CC(=O)O)CCN(CC(=O)O)CCN(CC(=O)O)CC2)CC1)C(=O)O)C(=O)O` [PSMA-617], the “% bound of total applied dose” value (LNCaP cells; 60 min incubation with 0.4 nM 68Ga-labelled conjugates) is reported as 10.23 ± 0.86%, the IC50 (PSMA) is reported as 1.75 ± 0.16 nM and the logD ([1]; n-octanol/PBS pH 7.4, after radiolabeling with 68Ga, read-out: logD (n-oct/PBS)) is reported as -3.62 ± 0.49.

In the case of `CN(Cc1ccc(-c2[nH]c3cc(F)cc4c3c2CCNC4=O)cc1)C(=O)CCSSCCC(=O)NCCCC[C@@H](NC(=O)CCC(C(=O)O)N1CCN(CC(=O)O)CCN(CC(=O)O)CCN(CC(=O)O)CC1)C(=O)N[C@H](CC(=O)O)C(=O)N[C@H](Cc1ccc(O)cc1)C(=O)N[C@H](Cc1ccccc1)C(=O)N[C@@H](Cc1ccc2ccccc2c1)C(=O)NCCCCCC(=O)NCCCC[C@H](NC(=O)N[C@@H](CCC(=O)O)C(=O)O)C(=O)O` (single isomer, unassigned) [Conjugate 11], the “% bound of total applied dose” value (LNCaP cells) is reported as 6.45 ± 1.16%, the IC50 (PSMA) is reported as 5.34 ± 1.45 nM and the logD ([1]; pH 7.4) is reported as -3.11 ± 0.08. The “stable (intact) after incubation in human serum” value (Serum stability) was 93%, the “intact after incubation in human serum” value (Serum stability) was 74% and the biodistribution profile ([2]; 68Ga-labelled) was “uptake limited to PSMA-expressing tumors and kidneys”. For the same compound, the “tumor uptake (PET/CT, biodistribution)” value ([2]; 60 min p.i.) was “uptake in PSMA+ PC3-PIP tumors and no accumulation in PSMA- PC3-Flu tumors”.

With `CN(Cc1ccc(-c2[nH]c3cc(F)cc4c3c2CCNC4=O)cc1)C(=O)CCSSCCC(=O)NCCCC[C@@H](NC(=O)CCC(C(=O)O)N1CCN(CC(=O)O)CCN(CC(=O)O)CCN(CC(=O)O)CC1)C(=O)N[C@H](CC(=O)O)C(=O)NCCC(=O)NC[C@H]1CC[C@H](C(=O)N[C@@H](Cc2ccc3ccccc3c2)C(=O)NCCCC[C@H](NC(=O)N[C@@H](CCC(=O)O)C(=O)O)C(=O)O)CC1` (some centres unmarked) [Conjugate 9] the “% bound of total applied dose” value (LNCaP cells) was 8.00 ± 1.27%, the IC50 (PSMA) was 3.03 ± 0.2 nM and the logD ([1]; pH 7.4) was -2.1 ± 0.24. For the same compound, the biodistribution profile ([2]; 68Ga-labelled) was “uptake is limited to PSMA+ tumors and kidneys”.

With `CN(Cc1ccc(-c2[nH]c3cc(F)cc4c3c2CCNC4=O)cc1)C(=O)CCSSCCC(=O)NCCCCN1CCN(CC(=O)O)CCN(C(CCC(=O)N[C@H](CC(=O)O)C(=O)N[C@H](CC(=O)O)C(=O)NCCC(=O)NC[C@H]2CC[C@H](C(=O)N[C@@H](Cc3ccc4ccccc4c3)C(=O)NCCCC[C@H](NC(=O)N[C@@H](CCC(=O)O)C(=O)O)C(=O)O)CC2)C(=O)O)CCN(CC(=O)O)CC1` (some centres unmarked) [Conjugate 14] the “% bound of total applied dose” value (LNCaP cells) was 6.46 ± 0.98%, the IC50 (PSMA) was 2.19 ± 0.37 nM and the logD ([1]; pH 7.4) was -3.42 ± 0.15.

In the case of `O=C([O-])CN1CCN(CC(=O)[O-])CCN(CC(=O)NCC2CCC(C(=O)N[C@@H](Cc3ccc4ccccc4c3)C(=O)NCCCC[C@H](NC(=O)N[C@@H](CCC(=O)O)C(=O)O)C(=O)O)CC2)CCN(CC(=O)[O-])CC1.[177Lu+3]` (some centres unmarked) [^177Lu-PSMA-617], the median overall survival (late stage mCRPC) is given as 15.3 months.

With `CNCc1ccc(-c2[nH]c3cc(F)cc4c3c2CCNC4=O)cc1` [Ruc, Rucaparib] the “localization of Ruc fluorescence” value [3] was “localized in the cell nucleus of PSMA-expressing and non-expressing cells non-selectively; also recorded: non-selective uptake in PSMA+ and PSMA- cells”, the viability at 20 µM (PSMA+ (LNCaP); Homo sapiens, pretreated with 10 mM GSH, read-out: cell viability compared to untreated cells) was 30 to 50% and the viability at 20 µM (PSMA- (PC3)) was 30 to 50%. For the same compound, the “patients with a partial response” value (mCRPC) was 30-40% and the “patients with an objective response” value (mCRPC) was 44%.

With `CN(Cc1ccc(-c2[nH]c3cc(F)cc4c3c2CCNC4=O)cc1)C(=O)CCSSCCC(=O)NCCCCN1CCN(CC(=O)O)CCN(C(CCC(=O)N[C@H](CC(=O)O)C(=O)N[C@H](CC(=O)O)C(=O)N[C@H](Cc2ccc(O)cc2)C(=O)N[C@H](Cc2ccccc2)C(=O)N[C@H](Cc2ccccc2)C(=O)NCCCCCC(=O)NCCCCCC(=O)NCCCC[C@H](NC(=O)N[C@@H](CCC(=O)O)C(=O)O)C(=O)O)C(=O)O)CCN(CC(=O)O)CC1` (some centres unmarked) [Conjugate 15] the “% bound of total applied dose” value (LNCaP cells) was 6.50 ± 0.50%, the IC50 (PSMA) was 4.28 ± 0.95 nM and the logD ([1]; pH 7.4) was -3.4 ± 0.07.

With `CN(Cc1ccc(-c2[nH]c3cc(F)cc4c3c2CCNC4=O)cc1)C(=O)CCSSCCC(=O)NCCCCN1CCN(CC(=O)O)CCN(C(CCC(=O)N[C@H](CC(=O)O)C(=O)N[C@H](CC(=O)O)C(=O)NCCC(=O)NC[C@H]2CC[C@H](C(=O)N[C@@H](Cc3ccc4ccccc4c3)C(=O)NCCCC[C@@H](NC(=O)CC[C@H](NC(=O)N[C@@H](CCC(=O)O)C(=O)O)C(=O)O)C(=O)O)CC2)C(=O)O)CCN(CC(=O)O)CC1` (single isomer, unassigned) [Conjugate 18] the PiP/muscle ratios [2, 4] was over 25, the “PiP:Flu ratios” value [2, 4] was over 8 and the “tumor uptake (PET/CT, biodistribution)” value ([2]; 60 min p.i.) was “selective uptake in PC3-PiP tumors and low uptake in PC3-Flu tumors and other organs”.

With `CN(Cc1ccc(-c2[nH]c3cc(F)cc4c3c2CCNC4=O)cc1)C(=O)CCCCCCC(=O)NCCCC[C@@H](NC(=O)CCC(C(=O)O)N1CCN(CC(=O)O)CCN(CC(=O)O)CCN(CC(=O)O)CC1)C(=O)N[C@H](CC(=O)O)C(=O)NCCC(=O)NC[C@H]1CC[C@H](C(=O)N[C@@H](Cc2ccc3ccccc3c2)C(=O)NCCCC[C@H](NC(=O)N[C@@H](CCC(=O)O)C(=O)O)C(=O)O)CC1` (stereo partly drawn) [Conjugate 13, DOTAGA-n-Lys(Ruc-Sub)-n-Asp-β-Ala-TXA-L-Nal-KuE] the “% bound of total applied dose” value (LNCaP cells) was 10.8 ± 2.07%, the IC50 (PSMA) was 0.67 ± 0.09 nM and the logD ([1]; pH 7.4) was -2.58 ± 0.05. For the same compound, the cytotoxic effects (PSMA+ (LNCaP); 20 µM) was “did not show cytotoxic effects”, the “stable (intact) after incubation in human serum” value (Serum stability) was 94% and the “intact after incubation in human serum” value (Serum stability) was 89%.
